Assay: in vitro
Conditions: human, hela cells, % viability

Compound | viability at 28.5 h, 10 µM
Cc1ccc2ccc(S(=O)(=O)NCc3cccnc3)cc2c1 [CBK262072] | 98.8%
Cc1ccc(C(=O)O/C(=C/c2nc3ccccc3n2Cc2cccc3ccccc23)c2ccc(C)cc2)cc1 [CBK262485] | 108%
O=C(c1nc2ncccn2n1)N1CCc2ccccc2C1 [CBK288079] | 88%
Cc1ccc(C(C)C)c(OCC(=O)n2nc(C)cc2C)c1 [CBK058196] | 87.9%
COCc1nnc(Sc2cc(NC(C)C)ncn2)s1 [CBK093784] | 89.3%
CC(C)C[C@@H]1N[C@H](C(=O)NCC2CCOCC2)Cc2c[nH]c3cccc1c23 [CBK289427] | 103%
NCCNc1ccc([N+](=O)[O-])c(NCc2ccccc2)c1 [CBK262757C] | 83.7%
O=C1CC(c2ccccc2F)C2=C(COC2=O)N1 (stereo not drawn) [CBK086692] | 92%
COc1ccc2[nH]c3c(c2c1)CCN(C=O)C31CCCN(CCC#N)C1 (stereo not drawn) [CBK039445] | 107%
Cn1c(=O)c2ncn(CC(=O)Nc3ccc(N4CCN(Cc5ccccc5)CC4)cc3)c2n(C)c1=O [CBK266875] | 99.7%
CCOC(CCNC(=O)c1cnc(Nc2ccccc2OC)c2ccccc12)OCC [CBK291184] | 68.3%
CSCCC(=O)NCc1ccc(-c2csnn2)cc1 [CBK149304] | 83.2%
O=C(Cn1c([C@@H]2CCCO2)cc2cccnc21)N1CCCCC1 [CBK282286] | 90.3%
CC1=C(C(=O)Nc2ccccc2)C(c2cccs2)C(C#N)=C(SCC(=O)c2ccc(Br)cc2)N1 (stereo not drawn) [CBK261384] | 104%
OCCN(Cc1ccccc1)Cc1ccc(-c2ccccc2)cc1 [CBK261883] | 102%
O=C(NC(c1ccccc1)c1ccccc1)C1(c2ccccc2)CCCC1 [CBK149536] | 96.8%
Cc1ccccc1C(=O)NC(=S)Nc1sc2c(c1C(N)=O)CCC2 [CBK262107] | 88.9%
CC(C)c1nsc(NS(=O)(=O)Cc2ccccc2)n1 [CBK051188] | 112%
Cn1c(=O)c2c(ncn2CCCN)n(C)c1=O [CBK267707C] | 91.8%
Cc1ccc2oc([C@H]3CCN(Cc4ccc(C(=O)O)cc4)C3)nc2c1 [CBK289386] | 100%
CC(C)Nc1cncc(OCCN2CCNCC2)n1 [CBK115601] | 93.6%
O=C(NCCc1c[nH]c2ccc(Cl)cc12)c1cccnc1 [CBK159778] | 106%
CC(C)(C)C(=O)N1CCN(Cc2ccc3c(c2)OCO3)CC1 [CBK074842] | 88.8%

Compound | viability at 28.5 h, 10 µM
CCn1cc(C2CN(S(=O)(=O)c3c(C)c(C)cc(C)c3C)CCO2)cn1 (stereo not drawn) [CBK306171] | 63.8%
COC(=O)c1csc(-c2ccc(Cl)cc2Cl)n1 [CBK067776] | 103%
CCNC(=O)Nc1nn(Cc2ccc(OC)cc2)c2ccccc12 [CBK105837] | 94.6%
CCOC(=O)c1cnn2c(O)cc(CN(Cc3cccs3)C3CC3)nc12 [CBK305625] | 96.9%
COc1ccc(-c2nc3cc(OC)ccc3[nH]2)cc1 [CBK000126] | 90.5%
CCCCC(NS(=O)(=O)Cc1ccccc1)C(=O)O (stereo not drawn) [CBK286798] | 91.1%
Nc1nncn1C(=O)c1ccccc1SCc1ccccc1 [CBK270120] | 88.9%
COc1ccc(C(=O)N2CCC3(CCCN(C(=O)c4cc(OC)c(OC)c(OC)c4)C3)C2)cc1OC (stereo not drawn) [CBK131667] | 86.7%
COc1cccc(CN2CCC3(CC2)c2[nH]c4ccc(OCc5ccccc5)cc4c2CCN3C=O)c1 [CBK040462] | 101%
Cc1ncsc1CCOc1nc2cc(Cl)c(Cl)cc2nc1NC(C)C [CBK115744] | 88.6%
CCOC(=O)c1cnn(C2CCCN(Cc3cnnn3C)C2)c1 (stereo not drawn) [CBK305122] | 98.5%
CCn1cc(-c2cncn2CC(C)N2CCC(C)CC2)cn1 (stereo not drawn) [CBK281565] | 91.7%
O=C1NCC2(C/C=C/CCOc3ccccc31)CCN(C(=O)c1ccncc1)CC2 [CBK292018] | 105%
c1ccc(CN2CCN(c3nccnc3OCCN3CCOCC3)CC2)cc1 [CBK082885T] | 104%
CCCCS(=O)(=O)N1CCN(CCc2ccccc2)CC1 [CBK270316] | 87.3%
CC(C)OC(=O)CCNC(=O)c1cccc(S(=O)(=O)N2CCCC2)c1 [CBK306090] | 91.1%
CN1C(=O)NC(c2ccc(Br)cc2)C2=C1CN(c1cccc(C(=O)O)c1)C2=O (stereo not drawn) [CBK286729] | 84.3%
CC(=O)Cn1c(CN2CCOCC2)nc2c1c(=O)n(C)c(=O)n2C [CBK269508] | 97.5%
COc1cc(Cl)cc(/C=N\NC(=O)C2C(=O)NCC2c2ccccc2)c1O (stereo not drawn) [CBK262825] | 91.8%
CC(=O)Nc1cccc(C(=O)OCC(=O)N2CCC(C)CC2)c1 [CBK305905] | 98.3%
CCSc1ccc(-c2cn3ccnc3c(N3CCN(CCN(C)C)CC3)n2)cc1 [CBK066662] | 92.8%
CCCC(=O)NC(c1ccc(OC)c(OC)c1)c1c(O)ccc2ccccc12 (stereo not drawn) [CBK263269] | 95.2%
CCCC/C(=N/N=C(\CCCC)c1ccncc1)c1ccncc1 [CBK016521] | 120%

Compound | viability at 28.5 h, 10 µM
COCCNC(=O)Cn1nnc(-c2ccc(OC)cc2)n1 [CBK069349] | 88.1%
Cc1ccc(OCCCSc2nnc(N)[nH]2)cc1 [CBK269215A] | 89.1%
O=C(CSc1nnc(-c2cccc(F)c2)o1)c1ccccc1 [CBK068764] | 105%
NC1CC(c2cc(NCc3cn4ccccc4n3)ncn2)C1 (stereo not drawn) [CBK306631] | 112%
Cc1cc(C)c(C(=O)NC2CCN(c3ncccc3C#N)CC2)c(=O)[nH]1 [CBK306709] | 110%
Cc1cc(CNC(=O)CCc2c(C)nc3nc(N)nn3c2C)ccc1F [CBK306212] | 91.9%
O=C(O)CCCCCN1C(=O)/C(=C/c2ccc(O)c(O)c2)SC1=S [CBK262771] | 91%
O=S(=O)(N1CCNCC1)N1CCOCC1 [CBK267467] | 88.5%
Cc1cc2c(N3CCCC(NS(C)(=O)=O)C3)nccc2o1 (stereo not drawn) [CBK306464] | 93.4%
c1ccc(N2CCN(c3nc(-c4ccoc4)cn4ccnc34)CC2)nc1 [CBK066522] | 99.7%
O=c1[nH]c(CNc2ccccc2)nc2ccccc12 [CBK288038] | 103%
Cc1nc2cc(OCc3nc(C(=O)N(CCO)CCO)co3)ccc2s1 [CBK307684] | 89.9%
O=C(NCc1ccco1)[C@@H]1C=CCN1C(=O)NCc1ccccc1 [CBK284293] | 93%
CC1CCCCN1C(=O)CCn1c(-c2ccncc2)cc2cccnc21 (stereo not drawn) [CBK282689] | 105%
CCOc1ccc2c(c1)CN(CCCc1nc(C)no1)CC2 [CBK305076] | 99.2%
COC(=O)CCc1ccc(-c2cnc(N)c(-c3ccc(O)cc3)n2)cc1 [CBK122809] | 88.9%
COc1cccc(-c2nn(CCC#N)cc2C(=O)N2CCCCC2)c1 [CBK305942] | 101%
O=C1/C(=C/c2cn(Cc3cccc4ccccc34)c3ccccc23)C(O)=NN1c1ccccc1 [CBK264849] | 94.7%
COc1ccc(NS(=O)(=O)c2ccc(OCC(=O)N3CCN(C)CC3)cc2)cc1Cl [CBK269565] | 85.8%
COc1ccccc1Cc1cccc(C2CCN(C(=O)c3ccc(F)cc3)CC2)n1 [CBK286237] | 108%
O=C(c1cccs1)N1C[C@H](c2ccc(F)cc2)[C@H]2CN(Cc3ccccc3)CC[C@H]21 [CBK285544] | 91.8%
O=C(NCCN1CCOCC1)NC(=O)c1ccc(Cl)cc1 [CBK269446] | 88.2%
CC(C)N1CC[C@@H]2[C@H]1C(=O)NC[C@H](CCC(=O)Nc1ccccc1)N2C [CBK289030] | 86.1%

Compound | viability at 28.5 h, 10 µM
O=C(CSc1nnc(-c2ccncc2)s1)NNC(=O)c1cccs1 [CBK269600] | 82.3%
COc1ccc(C2(NCc3ccc(N4CCCC4=O)cc3)CC2)cc1 [CBK282834] | 103%
CN(C)CCOCc1ncccc1OCCOC1CCCCO1 (stereo not drawn) [CBK045662] | 93.1%
Nc1ncn(CC(O)CO)c2nc(N3CCOCC3)nc1-2 (stereo not drawn) [CBK009231] | 90.8%
CCc1cc2c(=O)c(-c3nc(C)cs3)c(CCCC(=O)O)oc2cc1O [CBK264834] | 101%
Oc1ccc(/N=C/c2ccc(/C=N/c3ccc(O)cc3)cc2)cc1 [CBK261203] | 98.5%
O=c1[nH]c(=O)n([C@H]2C[C@@H](O)[C@@H](CO)O2)cc1O [CBK201317] | 101%
Cc1ccc(S(=O)(=O)N(CC(=O)Nc2cccnc2)c2cc(C)ccc2C)cc1 [CBK264115] | 61.7%
CC(C)(C)NC(=O)CSc1nnc(Cc2cccc3ccccc23)n1-c1ccccc1 [CBK266039] | 118%
Cc1ccc(SCCNS(=O)(=O)c2cccc([N+](=O)[O-])c2)cc1 [CBK267508] | 81.4%
CCC1CCCCN1S(=O)(=O)c1ccc(-n2ncc(Cl)c(Cl)c2=O)cc1 (stereo not drawn) [CBK305038] | 13.9%
COC(=O)c1cc(Cl)c2ccccc2n1 [CBK012428] | 80.4%
CN(C(=O)Cn1cccn1)c1nc2c(s1)CC(c1ccccc1)CC2 (stereo not drawn) [CBK305173] | 102%
CCCC(=O)N1CCC(Cc2ccc(-c3cccc(C)c3)cc2)(C(=O)NC(C)C)CC1 [CBK285760] | 93.9%
CN(Cc1cccc(Oc2ccccc2)c1)Cc1cccc2ccccc12 [CBK261857] | 96.9%
Cc1cccc(C)c1NC(=O)CN(Cc1ccccc1)Cc1cc2ccc(C)c(C)c2[nH]c1=O [CBK122696T] | 94.4%
COc1ccccc1CN(C)C(=O)CCc1ccc(S(N)(=O)=O)cc1 [CBK304585] | 86.8%
CN1CCCc2ccc(S(=O)(=O)Nc3ccc4nncn4c3)cc21 [CBK306435] | 98.6%
CCOC(=O)CSc1nc(=O)cc(N)n1Cc1ccc(F)cc1 [CBK269938] | 91.1%
COc1cccc(C(=O)Nc2cnn(CCCC(=O)O)c2)c1 [CBK269879] | 89.6%
O=C(Cn1nnc(-c2ccccc2)n1)Nc1ccccc1C(=O)O [CBK264358] | 103%

Reference: PMC12040169 (PLOS Biology, 2025)
